Experimental findings from patent US6403602B1 (priority 1997, dated 2002) are described below.

Broadly, the Ki is the dissociation constant of the complex between target and ligand, obtained from inhibition or displacement. In general, inhibition refers to the drop in the measured response relative to a control, in per cent. Broadly, the IC50 is the concentration that inhibits the measured activity by half. What is called Kb is the equilibrium dissociation constant of an antagonist, usually derived from a functional assay. Higher therefore signals lower antagonist affinity.

In data set [1] the test system is nociception (tail-flick). The data set can be described thus: Tail-flick test after intracerebroventricular administration. The data set is classed as in vivo. Particulars: rat tail-flick. Background: Hot-plate and tail-flick tests time the reaction to a heat stimulus.
In a further data set the target is T1, delta receptors (Cavia porcellus, UniProt A0A286XTF2).
T1 construct: The brains were then homogenized in 50 mM Tris HCl, buffer pH 7.7, using a Polytron; from tissue; host or cells: guinea pig brain homogenate (membrane pellet)
The data set can be described thus: biochemical. It is filed as binding, guinea pig.

The test system of data set [2] is electrically stimulated mouse vas deferens. The experiment in a line: tissue or blood. The data set is classed as cell-based.
The target in another data set is T2, kappa1 sites (Cavia porcellus, UniProt P41144).
T2 construct: The brains were then homogenized in 50 mM Tris HCl, buffer pH 7.7, using a Polytron; from tissue; host or cells: guinea pig brain homogenate (membrane pellet)
The experiment in a line: biochemical. It is filed as binding, guinea pig.

The next data set deals with mu receptors. It is filed as cell-based, guinea pig.
In the next data set the target is T3, kappa receptors (Cavia porcellus, UniProt P41144).
T3 construct: The longitudinal muscle with the myenteric plexus attached was gently separated from the underlying circular muscle; from tissue; host or cells: guinea pig ileum longitudinal muscle with myenteric plexus
It is filed as cell-based, guinea pig.

For another data set, the target named is mu opioid receptors (Cavia porcellus, UniProt A0ACM8Q262). It is filed as binding, guinea pig.
In a further data set the test system is kappa3 receptors. The data set is classed as binding, guinea pig. The note with it: for Ki: read-out: Ki κ3 [^3H]NalBzoH.
The subject of data set [3] is electrically stimulated guinea pig ileum. The data set can be described thus: tissue or blood. The data set is classed as cell-based. Particulars: for IC50: Cavia porcellus, read-out: Guinea Pig Ileum IC50 (nM).
For data set [4], the system named is nociception (tail-flick). The data set can be described thus: Tail-flick test after subcutaneous administration. The note with it: rat tail-flick, sc; for analgesic activity in words / duration of maximal analgesic effect: dose equimolar to 5 mg/kg morphine.
Data set [5] relates to morphine withdrawal signs. The data set can be described thus: Single dose substitution and precipitated morphine withdrawal in morphine dependent Rhesus monkeys. Particulars: sc, M3A6S 2.5 and 10.0 mg/kg, DM3A6S 3.0, 12.0 and […].
For the next data set, the system named is κ2 sites. The data set is classed as binding, guinea pig.
Another data set concerns the target T4, δ opioid receptor (Mus musculus, UniProt P32300).
T4 construct: from tissue; host or cells: organ-bath tissue, probably mouse vas deferens
The data set can be described thus: Antagonist activity (pA2) at δ in the functional assays. The data set is classed as cell-based.

The target in a further data set is T5, κ opioid receptor (Cavia porcellus, UniProt P41144).
T5 construct: from tissue; host or cells: organ-bath tissue, probably guinea pig ileum
The experiment in a line: Antagonist activity (pA2) at κ in the functional assays. It is filed as cell-based.

[6] abbreviates: icv, molar dose equivalent to the lower dose of morphine.
Setting [7] is: Mus musculus, read-out: Mouse vas deferens maximum inhibition.

Structures are written as SMILES. “Also recorded” adds a separate entry of the source.

T2 sequence (P41144 whole entry): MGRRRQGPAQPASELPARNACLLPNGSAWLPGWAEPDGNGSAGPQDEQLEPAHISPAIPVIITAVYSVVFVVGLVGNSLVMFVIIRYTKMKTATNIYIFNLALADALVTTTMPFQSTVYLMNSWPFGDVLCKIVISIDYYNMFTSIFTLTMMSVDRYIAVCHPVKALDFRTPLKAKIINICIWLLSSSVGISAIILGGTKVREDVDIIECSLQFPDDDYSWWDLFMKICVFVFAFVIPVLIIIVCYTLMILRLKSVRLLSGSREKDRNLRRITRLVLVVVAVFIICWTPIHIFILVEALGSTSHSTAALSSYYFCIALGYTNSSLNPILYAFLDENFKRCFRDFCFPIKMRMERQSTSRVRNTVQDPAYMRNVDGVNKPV
T3 sequence (P41144 whole entry): as above
T1 sequence (A0A286XTF2 1-366): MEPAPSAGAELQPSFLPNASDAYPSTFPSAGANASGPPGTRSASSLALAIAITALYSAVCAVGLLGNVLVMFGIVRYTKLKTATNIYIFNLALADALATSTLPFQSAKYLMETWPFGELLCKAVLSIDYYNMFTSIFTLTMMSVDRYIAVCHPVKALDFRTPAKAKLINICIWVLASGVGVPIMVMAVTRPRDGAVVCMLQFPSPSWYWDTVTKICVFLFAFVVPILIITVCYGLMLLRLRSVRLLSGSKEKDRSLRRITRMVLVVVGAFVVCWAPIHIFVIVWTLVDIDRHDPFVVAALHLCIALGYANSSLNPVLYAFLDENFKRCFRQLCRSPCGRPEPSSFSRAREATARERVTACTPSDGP
Sequence of mu opioid receptors (A0ACM8Q262 1-400): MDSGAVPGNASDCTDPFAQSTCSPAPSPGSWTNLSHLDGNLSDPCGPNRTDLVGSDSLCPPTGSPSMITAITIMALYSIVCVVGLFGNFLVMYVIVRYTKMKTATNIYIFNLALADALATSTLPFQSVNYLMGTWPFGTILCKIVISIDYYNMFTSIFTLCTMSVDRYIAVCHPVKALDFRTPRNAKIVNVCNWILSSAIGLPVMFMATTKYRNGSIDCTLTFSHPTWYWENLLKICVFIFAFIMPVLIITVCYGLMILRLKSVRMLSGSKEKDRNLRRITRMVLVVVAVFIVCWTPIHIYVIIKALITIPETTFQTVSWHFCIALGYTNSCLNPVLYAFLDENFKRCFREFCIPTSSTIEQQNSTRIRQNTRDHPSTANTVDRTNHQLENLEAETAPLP
T5 sequence (P41144 whole entry): as the sequence (P41144 whole entry) above
T4 sequence (P32300 whole entry): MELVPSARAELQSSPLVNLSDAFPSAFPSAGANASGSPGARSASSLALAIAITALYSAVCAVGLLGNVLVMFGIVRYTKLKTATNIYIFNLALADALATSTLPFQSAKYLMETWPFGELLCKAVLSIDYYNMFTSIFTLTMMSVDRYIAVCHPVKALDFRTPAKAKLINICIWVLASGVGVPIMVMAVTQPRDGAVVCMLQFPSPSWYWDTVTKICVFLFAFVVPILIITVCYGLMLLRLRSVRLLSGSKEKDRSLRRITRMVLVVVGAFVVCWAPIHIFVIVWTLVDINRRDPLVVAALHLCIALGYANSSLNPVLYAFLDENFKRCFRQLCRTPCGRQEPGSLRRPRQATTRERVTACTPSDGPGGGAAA

As for `CN1CC[C@]23c4c5ccc(O)c4O[C@H]2[C@@H](O)C=C[C@H]3[C@H]1C5` [Morphine, morphine], the “onset of analgesic response after icv injection” value in the data set on nociception (tail-flick) [1] (higher dose 23.6 μg/4 μl/rat) was 6 min.
As for `CC(=O)Oc1ccc2c3c1O[C@H]1[C@@H](OS(=O)(=O)O)C=C[C@H]4[C@@H](C2)N(C)CC[C@@]341` [NIDA # 20,264, 3-O-Acetylmorphine-6-O-sulfate], in the data set with nociception (tail-flick) [1] (setting [6]), the “duration of maximal analgesia” value was found to be 90 min and the “time to maximal analgesic effect” value worked out at 10 min. This compound also registered a Ki at delta receptors of 308 nM. Also, the inhibition at 200 µM in data set [2] (setting [7]) is 30%. For the same compound, on kappa1 sites, the Ki turned out to be 1160 nM and the “binding to kappa1 sites in words” value is given as “weakly”. In the data set with mu receptors, the “Guinea Pig Ileum DR with CTAP” value is given as 5.40 ± 0.18, the “Guinea Pig Ileum Ke of CTAP” value was 22.73 ± 0.91 and the “Guinea Pig Ileum Ratio (CTAP)” value turned out to be 0.851. Besides, at kappa receptors, the “Guinea Pig Ileum DR with Nor-BNI” value was 1.39 ± 0.14, the “Guinea Pig Ileum Ke of Nor-BNI” value worked out at 54.42 ± 19.6 and the “Guinea Pig Ileum Ratio (Nor-BNI)” value is listed as 0.001. At mu opioid receptors, the “Ki mu/Ki delta” value is 0.0026; the “affinity to mu receptors in words” value is “greater affinity than that of morphine”; the “selectivity for mu-receptors, greater than morphine” value came out at 3 fold. In addition, in the data set with kappa3 receptors, the “affinity to kappa3 receptors in words” value is “greater affinity than that of morphine”; the “selectivity for kappa3 receptors, greater than morphine” value was found to be 2.2 fold; the Ki was 5.5 nM. Also, in data set [3], the “Guinea pig ileum, result in words” value is given as “inhibited electrically induced twitches” and the IC50 was 25.9 ± 5.3 nM. Further, in the data set with nociception (tail-flick) [4], the “analgesic activity in words” value is on record as “analgesic profile similar to that of M6S” and the “duration of maximal analgesic effect” value came to 4 h. The “substitution for morphine / withdrawal, in words” value in data set [5] is listed as “did not substitute for morphine, nor did it exacerbate withdrawal”. In addition, the IC50 in the data set on κ2 sites is more than 10000 nM.
As for `CN1CC[C@]23c4c5ccc(O)c4O[C@H]2[C@@H](OS(=O)(=O)O)C=C[C@H]3[C@H]1C5` [NIDA # 20,266, Morphine-6-O-Sulfate], the “duration of maximal analgesia” value with nociception (tail-flick) [1] (setting [6]) was 70 min. At delta receptors, the Ki was determined as 18 nM and the “affinity to delta receptors in words” value is “greater affinity than that of morphine”. In addition, on kappa1 sites, the affinity corresponds to a Ki of 1190 nM and the “binding to kappa1 sites in words” value is given as “weakly”. In addition, in the data set on mu receptors, the “Guinea Pig Ileum DR with CTAP” value stood at 5.00 ± 2.16, the “Guinea Pig Ileum Ke of CTAP” value was 29.18 ± 15.7 and the “Guinea Pig Ileum Ratio (CTAP)” value stood at 0.663. Also, at kappa receptors, the “Guinea Pig Ileum DR with Nor-BNI” value was 0.87 ± 0.06. For the same compound, at mu opioid receptors, the “affinity to mu receptors in words” value is “greater affinity than that of morphine” and the “selectivity for mu-receptors, greater than morphine” value was 3 fold. In the data set on kappa3 receptors, the “affinity to kappa3 receptors in words” value is listed as “greater affinity than that of morphine”; the “selectivity for kappa3 receptors, greater than morphine” value was determined as 2.2 fold; the Ki worked out at 6.3 nM. Also, in data set [3], the “Guinea pig ileum, result in words” value is recorded as “inhibited electrically induced twitches” and the IC50 was determined as 67 ± 12.1 nM. Moreover, in the data set on nociception (tail-flick) [4], the “analgesic activity in words” value was “maximal analgesic effect similar to morphine” and the “duration of maximal analgesic effect” value was “over 3 hours”. In the data set with κ2 sites, this compound showed an IC50 of more than 10000 nM.
In the case of `CC(=O)Oc1ccc2c3c1O[C@H]1[C@@H](OS(=O)(=O)[O-])C=C[C@H]4[C@@H](C2)[N+](C)(C)CC[C@@]341` [NIDA # 20,269, 3-O-Acetyl-N-methylmorphinium-6-O-sulfate], the Ki stood at 842 nM at delta receptors and 400 nM on kappa3 receptors. Also, the “Mouse vas deferens, result in words” value in data set [2] is on record as “lacks activity”. Besides, the inhibition at 200 µM in [2] (setting [7]) came out at 20%. The “Guinea pig ileum, result in words” value in data set [3] is reported as “no activity; also recorded: lacks activity”. The “analgesic activity in words” value with nociception (tail-flick) [4] (listed as MM3A6S) is “devoid of any analgesic properties; also recorded: inactive”. The compound also displayed an IC50 in the data set on κ2 sites of more than 10000 nM.
Turning to `CN1CC[C@]23c4c5ccc(OC(=O)C(C)(C)C)c4O[C@H]2[C@@H](OS(=O)(=O)O)C=C[C@H]3[C@H]1C5` [NIDA # 20,272, 3-O-Pivaloylmorphine-6-O-sulfate], at delta receptors, the Ki amounted to 15.2 nM. Moreover, in data set [2] (setting [7]), the inhibition at 20 µM was 26.2%. The same compound gave a Ki on kappa1 sites of 1940 nM. Besides, in the data set with mu receptors, the “Guinea Pig Ileum DR with CTAP” value stood at 4.50 ± 0.14 and the “Guinea Pig Ileum Ratio (CTAP)” value is listed as 0.676. At kappa receptors, the “Guinea Pig Ileum DR with Nor-BNI” value came out at 1.13 ± 0.01, the “Guinea Pig Ileum Ke of Nor-BNI” value was found to be 154.77 ± 16.8 and the “Guinea Pig Ileum Ratio (Nor-BNI)” value was 0.0004. Also, on kappa3 receptors, the Ki was found to be 11.2 nM. In addition, the IC50 in data set [3] is 69.3 ± 25 nM. In addition, the IC50 in the data set on κ2 sites is more than 10000 nM.
Turning to `CN1CC[C@]23c4c5ccc(OC(=O)c6ccccc6)c4O[C@H]2[C@@H](OS(=O)(=O)O)C=C[C@H]3[C@H]1C5` [NIDA # 20,273, 3-O-Benzoylmorphine-6-O-sulfate], at delta receptors, the Ki worked out at 600 nM. Also, in data set [2] (setting [7]), the inhibition at 100 µM was 29.4%. In addition, in the data set on mu receptors, the “Guinea Pig Ileum DR with CTAP” value is 3.68 ± 0.27, the “Guinea Pig Ileum Ke of CTAP” value worked out at 34.92 ± 3.22 and the “Guinea Pig Ileum Ratio (CTAP)” value came to 0.554. Besides, at kappa receptors, the “Guinea Pig Ileum DR with Nor-BNI” value is given as 1.31 ± 0.13, the “Guinea Pig Ileum Ke of Nor-BNI” value is given as 70.73 ± 29.13 and the “Guinea Pig Ileum Ratio (Nor-BNI)” value was found to be 0.001. On kappa3 receptors, the Ki is 513 nM. Further, in data set [3], the “Guinea pig ileum, result in words” value was “inhibited electrically induced twitches” and the IC50 was 658 ± 130 nM. The “analgesic activity in words” value in the data set with nociception (tail-flick) [4] (listed as M3B6S) was “gradual onset of weak analgesia; also recorded: inactive”. Further, the “maximum analgesia, % of maximal analgesia” value in the data set with nociception (tail-flick) [4] (equimolar dose, over 4 hours) was found to be 27%. The compound also returned an IC50 in the data set on κ2 sites of more than 10000 nM.
On to `C=CCN1CC[C@]23c4c5ccc(O)c4O[C@H]2/C(=N/NC(=O)c2ccccc2)CC[C@@]3(O)[C@H]1C5` [NalBzoH, naloxone benzoylhydrazone], for which the Ki at delta receptors turned out to be 1.4 nM; at kappa1 sites, 0.4 nM; on kappa3 receptors, 0.3 nM. Also, the Kb at δ opioid receptor and at κ opioid receptor was 17.4 nM in each case. For the same compound, the IC50 in the data set on κ2 sites is 66.5 nM.
For `Oc1ccc2c3c1O[C@H]1c4[nH]c5ccccc5c4C[C@@]4(O)[C@@H](C2)N(CC2CC2)CC[C@]314` [Naltrindole], the Ki on kappa1 sites is 7.8 nM; on kappa3 receptors, 12.4 nM. Moreover, the antagonist equilibrium constant (Kb) at δ opioid receptor was found to be 0.012 nM; on κ opioid receptor, 24.5 nM. The IC50 in the data set on κ2 sites was 540 nM.
